Article PMC4753412, “Involvement of an octose ketoreductase and two acyltransferases in the biosynthesis of paulomycins” (Scientific Reports, 2016)
In brackets after ≈: the same amount, converted by molar mass. Like-named read-outs stand apart in the source and are kept apart here.

Legend:
Test in all cases: microbe, parasite or virus in culture
Parameters in all cases: agar dilution antibacterial assay, minimum inhibitory concentration
S. epidermidis = conditions: Staphylococcus epidermidis, 24 h
Procedure: (§1) Antibacterial activity was determined by agar dilution method according to the method as described. […], […], Staphylococcus epidermidis, Staphylococcus aureus and Bacillus subtilis were used as the tested bacteria. After incubation for 24 h at 37 °C, the MICs were calculated (Table S3).

S. aureus = conditions: Staphylococcus aureus, 24 h
Procedure: as §1

Bacillus subtilis = conditions: 24 h
Procedure: as §1

S. pneumoniae = conditions: Streptococcus pneumoniae, 24 h
Procedure: as §1

S. pyogenes = conditions: Streptococcus pyogenes, 24 h
Procedure: as §1

## CC=C(N=C=S)C(=O)OCC1OC(C2(O)CC(=O)C(N)=C(C(=O)O)C2=O)C(O)C(OC2CC(OC)C(O)(C(C)OC(=O)C(C)CC)C(C)O2)C1O (stereo not shown) [compound 9, 9]
S. epidermidis; read-out: MIC 9
  MIC: > 100 µg/mL
S. aureus; read-out: MIC 9
  MIC: > 100 µg/mL
Bacillus subtilis; read-out: MIC 9
  MIC: > 100 µg/mL
S. pneumoniae; read-out: MIC 9
  MIC: > 100 µg/mL
S. pyogenes; read-out: MIC 9
  MIC: > 50 µg/mL

## CC=C(N=C=S)C(=O)OCC1OC(C2(O)CC(=O)C(N)=C(C(=O)O)C2=O)C(O)C(OC2CC(OC)C(O)(C(C)=O)C(C)O2)C1O (stereo not shown) [compound 10, 10]
S. epidermidis; read-out: MIC 10
  MIC: > 100 µg/mL
S. aureus; read-out: MIC 10
  MIC: > 100 µg/mL
Bacillus subtilis; read-out: MIC 10
  MIC: > 100 µg/mL
S. pneumoniae; read-out: MIC 10
  MIC: > 100 µg/mL
S. pyogenes; read-out: MIC 10
  MIC: > 100 µg/mL

## CC=C(N=C=S)C(=O)OC1C(COC(C)=O)OC(C2(O)CC(=O)C(N)=C(C(=O)O)C2=O)C(O)C1OC1CC(OC)C(O)(C(C)OC(=O)C(C)CC)C(C)O1 (stereo not shown) [compound 3, 3]
S. epidermidis; read-out: MIC 3
  MIC: 0.05 µg/mL (≈ 0.0635 µM)
S. aureus; read-out: MIC 3
  MIC: 0.1 µg/mL (≈ 0.127 µM)
Bacillus subtilis; read-out: MIC 3
  MIC: 0.1 µg/mL (≈ 0.127 µM)
S. pneumoniae; read-out: MIC 3
  MIC: 0.05 µg/mL (≈ 0.0635 µM)
S. pyogenes; read-out: MIC 3
  MIC: 0.025 µg/mL (≈ 0.0318 µM)

## CC=C(N=C=S)C(=O)OCC1OC(C2(O)CC(=O)C(N)=C(C(=O)O)C2=O)C(O)C(OC2CC(OC)C(O)(C(C)OC(=O)C(C)C)C(C)O2)C1O (stereo not shown) [compound 8, 8]
S. epidermidis; read-out: MIC 8
  MIC: > 100 µg/mL
S. aureus; read-out: MIC 8
  MIC: > 100 µg/mL
Bacillus subtilis; read-out: MIC 8
  MIC: > 100 µg/mL
S. pneumoniae; read-out: MIC 8
  MIC: > 100 µg/mL
S. pyogenes; read-out: MIC 8
  MIC: > 50 µg/mL

## C/C=C(\N=C=S)C(=O)O[C@H]1[C@@H](O[C@H]2C[C@H](OC)[C@@](O)([C@H](C)OC(=O)C(C)C)[C@H](C)O2)[C@@H](O)[C@H]([C@@]2(O)CC(=O)C(=N)C(C(=O)O)=C2O)O[C@@H]1COC(C)=O [compound 4, paulomycin B]
S. epidermidis; read-out: MIC 4
  MIC: 0.05 µg/mL (≈ 0.0647 µM)
S. aureus; read-out: MIC 4
  MIC: 0.1 µg/mL (≈ 0.129 µM)
Bacillus subtilis; read-out: MIC 4
  MIC: 0.1 µg/mL (≈ 0.129 µM)
S. pneumoniae; read-out: MIC 4
  MIC: 0.05 µg/mL (≈ 0.0647 µM)
S. pyogenes; read-out: MIC 4
  MIC: 0.025 µg/mL (≈ 0.0324 µM)
